Data on one compound can be found in paper PMC9430770 (Microbiology Spectrum, 2022).

Where only a bound is given, the exact number is not on record here.

This test relates to C. albicans eno1/eno1 mutant strain. In words: Galleria mellonella infection model, eno1/eno1 strain. In kind it is in vivo, Candida albicans. Particulars: G. mellonella, 10 mg/kg. The protocol:
To assess whether Eno1 is a therapeutic target of BE, we constructed a homozygous deletion strain for the ENO1 gene (eno1/eno1). We then investigated the difference in the antifungal efficacy of BE on the infections caused by the parent strain SN152 and the eno1/eno1 strain in the Galleria mellonella infection model. We divided the G. mellonella into 5 groups, with 10 larvae in each group. All 10 larvae died after a 24-h infection with the SN152 strain, while only 3 larvae died after 24 h when infected with the eno1/eno1 strain; the remaining larvae died within 7 days. Compared with the group infected with the parent strain, the survival time of the group infected with the eno1/eno1 strain was longer (P < 0.01) (Fig. 4A). […] The survival rate of larvae in the BE (10 mg/kg of body weight)-treated, SN152 strain-infected group was extended by 30%, compared with that in the group infected with the SN152 strain but without antifungal drug treatment (P < 0.001) (Fig. 4B). […] All 10 larvae in the BE-treated group died within 6 days, and all 10 larvae without BE treatment were killed within 7 days (Fig. 4C). However, FLC (10 mg/kg) can extend the survival rate of larvae infected by the eno1/eno1 strain by 60% (P < 0.01) (Fig. 4D) compared with the group infected with the eno1/eno1 strain without antifungal drug treatment.
FIG 4 Eno1 acts as a therapeutic target of BE. […] Each curve represents a group of 10 larvae (n =10) monitored daily for survival for up to 10 days after infection. […]
Virulence testing of C. albicans was done in Galleria mellonella as described previously ([56]). […] After growth in YPD media overnight at 30°C and 200 rpm, C. albicans SN152 cells or eno1/eno1 mutant cells were washed with PBS 3 times and diluted to the desired concentration (1 × 10^7 cells/mL) determined by counting with a hemacytometer. […] The death of G. mellonella was assessed daily and analyzed statistically by the Kaplan-Meier method (log-rank test).

For the compound `O=c1cc(-c2ccccc2)oc2cc(O)c(O)c(O)c12` [BE, Baicalein], the “survival rate of larvae extended versus infected group without drug treatment” value is recorded as “no significant effect”. The “time within which all 10 larvae died” value (eno1/eno1-infected) is ≤ 6 days.
